# Legend:
# [1] = tested on: Culture Dry Yeast (CDY) corn-mash fermentations; assay: HPLC of corn-mash fermentations challenged with bacterial contamination and LAE treatments; assay type: cell-based; conditions: CDY + treatment + Bacteria; average
# Text: In support of validating LAE, High Performance Liquid Chromatography (HPLC) was used in a first phase of testing to evaluate the effects of LAE applications at various concentrations in order to determine the minimal inhibitory concentrations (MIC) of the LAE antimicrobial on a panel of industry-relevant bacteria. Refer to Tables 1 and 2 below, as well as FIGS. 2A-2D. FIG. 2A provides a visual depiction of test data relating to ethanol output from corn-mash fermentations treated with varying concentrations of LAE, with the results being the averages of triplicate samples (within one standard deviation). FIG. 2B provides a visual depiction of test data relating to ethanol output from corn-mash fermentations challenged with bacterial contamination and treated with 35 ppm LAE or 5 ppm Lactocide V (Virginamycin) (at the same time as the introduction of the bacteria), with the results being the averages of triplicate samples (within one standard deviation). FIG. 2C provides a visual depiction of test data relating to ethanol output from corn-mash fermentations challenged with bacterial contamination and treated with 50 ppm LAE or 5 ppm Lactocide V (Virginamycin) (at the same time as the introduction of the bacteria), with the results being the averages of triplicate samples (within one standard deviation). FIG. 2D provides a visual depiction of test data relating to colony-forming units (CFUs) of commercial yeast preparation with bacterial-contamination growth under batch-propagation conditions (molasses) with the addition of 0 ppm, 25 ppm, or 50 ppm LAE. One of the primary goals with the first phase of the LAE studies was to determine whether the addition of LAE would adversely affect ethanol production, and it was determined that LAE not only was not harmful to ethanol-production processes, but that unwanted microbe growth was inhibited using LAE enough to allow foregoing the use of antibiotics. Part of this analysis was to determine whether the introduction of LAE into the ethanol-production process would adversely impact the stillage byproducts used in animal feed, and for that matter whether the further use of LAE as a preservative in such byproducts would be safe for consumption by agricultural livestock. […] The testing serving as a basis for this conclusion assumed a maximum residual concentration of the LAE of 173 ppm in the distiller's grains. The safety of distiller's grains with LAE concentrations above 173 ppm was not fully evaluated.
# Weisella confusa = conditions: fermentation mixture; cited from earlier work
# fermentation = fermentation mixture; cited from earlier work
substance,measurement,setting,value
Virginiamycin [Lactocide],Acetic Acid,[1],0.14 % wt/vol
same,DP3,[1],0.15 % wt/vol
same,DP4,[1],0.78 % wt/vol
same,Ethanol,[1],13.36 % wt/vol
same,Glucose,[1],0.12 % wt/vol
same,Glycerol,[1],1.59 % wt/vol
same,Lactic Acid,[1],0.27 % wt/vol
same,Maltose,[1],0.48 % wt/vol
same,concentration required to inhibit growth,Weisella confusa,over 25 mg/L
same,concentration that will suppress fermentation,fermentation,over 6 mg/L

# From patent publication US12365925B2, “Method and system for treatment of microorganisms during propagation, conditioning, fermentation, and preservation using ethyl lauroyl arginate and selected additives” (KEMIN INDUSTRIES, INC., priority 2015, dated 2025)
